According to patent US11083725B2 (priority 2014, dated 2021):

Tested on: NHBE cells
Test: Biolog metabolic array: substrate use by NHBE cells with or without CA09 infection
Assay type: cell-based, human
Settings: for Substrate use, 590 nm absorbance normalized to zero hour, 1 hr: Biolog PMM2, 1 hr; for Substrate use, 590 nm absorbance normalized to zero hour, 5 hr: Biolog PMM2, 5 hr; for Substrate use, 590 nm absorbance normalized to zero hour, 7 hr: Biolog PMM2, 7 hr
[1] = Control (uninfected) NHBE cells
[2] = Virus (CA09-infected, MOI 1) NHBE cells
[3] = Virus: CA09-infected NHBE cells, MOI 1, Biolog PMM2
[4] = Virus (CA09-infected NHBE cells, MOI 1)

Compound	590 nm absorbance normalized to zero hour (substrate use), 1 hr [1]	590 nm absorbance normalized to zero hour (substrate use), 2 hr [1]	590 nm absorbance normalized to zero hour (substrate use), 3 hr [1]	590 nm absorbance normalized to zero hour (substrate use), 4 hr [1]	590 nm absorbance normalized to zero hour (substrate use), 6 hr [1]	590 nm absorbance normalized to zero hour (substrate use), 8 hr [1]	590 nm absorbance normalized to zero hour (substrate use), 9 hr [1]	590 nm absorbance normalized to zero hour (substrate use), 10 hr [1]	590 nm absorbance normalized to zero hour (substrate use), 11 hr [1]	Substrate use, 590 nm absorbance normalized to zero hour, 1 hr [1]	Substrate use, 590 nm absorbance normalized to zero hour, 5 hr [1]	Substrate use, 590 nm absorbance normalized to zero hour, 7 hr [1]	590 nm absorbance normalized to zero hour (substrate use), 1 hr [3]	590 nm absorbance normalized to zero hour (substrate use), 2 hr [3]	590 nm absorbance normalized to zero hour (substrate use), 3 hr [3]	590 nm absorbance normalized to zero hour (substrate use), 4 hr [3]	590 nm absorbance normalized to zero hour (substrate use), 5 hr [3]	590 nm absorbance normalized to zero hour (substrate use), 6 hr [3]	590 nm absorbance normalized to zero hour (substrate use), 7 hr [3]	590 nm absorbance normalized to zero hour (substrate use), 8 hr [3]	further results
O=c1[nH]cnc2c1ncn2[C@@H]1O[C@H](CO)[C@@H](O)[C@H]1O [Inosine]	3.56	5.67	2.78	4.11	2.23	4.46	6.41	6.92	5.14	3.56	4.02	6.19	1.16	1.78	2.23	2.45	3.06	3.30	3.54	3.88	590 nm absorbance normalized to zero hour (substrate use), 1 hr [2]: 1.16; 590 nm absorbance normalized to zero hour (substrate use), 2 hr [2]: 1.78; 590 nm absorbance normalized to zero hour (substrate use), 3 hr [2]: 2.23; 590 nm absorbance normalized to zero hour (substrate use), 4 hr [2]: 2.45; 590 nm absorbance normalized to zero hour (substrate use), 5 hr [2]: 3.06; 590 nm absorbance normalized to zero hour (substrate use), 6 hr [2]: 3.30; 590 nm absorbance normalized to zero hour (substrate use), 7 hr [2]: 3.54; 590 nm absorbance normalized to zero hour (substrate use), 8 hr [2]: 3.88; 590 nm absorbance normalized to zero hour (substrate use), 9 hr [2]: 4.33; 590 nm absorbance normalized to zero hour (substrate use), 10 hr [2]: 3.83; 590 nm absorbance normalized to zero hour (substrate use), 11 hr [2]: 4.20; 590 nm absorbance normalized to zero hour (substrate use), 9 hr [3]: 4.33; 590 nm absorbance normalized to zero hour (substrate use), 10 hr [3]: 3.83; 590 nm absorbance normalized to zero hour (substrate use), 11 hr [3]: 4.20
OC[C@@H](O)[C@@H](O[C@H]1O[C@H](CO)[C@@H](O)[C@H](O)[C@H]1O)[C@H](O)[C@@H](O)CO [Maltitol]	1.76	2.36	2.82	3.07	3.52	4.77	5.77	5.24	5.98	1.76	3.80	4.49	1.05	1.03	1.37	0.98	0.88	0.89	0.92	0.96	590 nm absorbance normalized to zero hour (substrate use), 0 hr [1]: 1.00; Substrate use, 590 nm absorbance normalized to zero hour, 0 hr (Control (uninfected) NHBE cells, Biolog PMM2, 0 hr): 1.00; 590 nm absorbance normalized to zero hour (substrate use), 0 hr [4]: 1.00; 590 nm absorbance normalized to zero hour (substrate use), 1 hr [4]: 1.05; 590 nm absorbance normalized to zero hour (substrate use), 2 hr [4]: 1.03; 590 nm absorbance normalized to zero hour (substrate use), 3 hr [4]: 1.37; 590 nm absorbance normalized to zero hour (substrate use), 4 hr [4]: 0.98; 590 nm absorbance normalized to zero hour (substrate use), 5 hr [4]: 0.88; 590 nm absorbance normalized to zero hour (substrate use), 6 hr [4]: 0.89; 590 nm absorbance normalized to zero hour (substrate use), 7 hr [4]: 0.92; 590 nm absorbance normalized to zero hour (substrate use), 8 hr [4]: 0.96; 590 nm absorbance normalized to zero hour (substrate use), 9 hr [4]: 1.01; 590 nm absorbance normalized to zero hour (substrate use), 10 hr [4]: 1.08; 590 nm absorbance normalized to zero hour (substrate use), 11 hr [4]: 1.16; 590 nm absorbance normalized to zero hour (substrate use), 0 hr [3]: 1.00; 590 nm absorbance normalized to zero hour (substrate use), 9 hr [3]: 1.01; 590 nm absorbance normalized to zero hour (substrate use), 10 hr [3]: 1.08; 590 nm absorbance normalized to zero hour (substrate use), 11 hr [3]: 1.16
O=C(O)CCC(=O)O [Succinic Acid]	1.02	1.06	1.08	1.06	0.39	0.96	0.94	0.87	0.81	1.02	1.04	1.00	1.69	2.01	2.37	2.37	2.54	2.73	2.78	2.85	590 nm absorbance normalized to zero hour (substrate use), 1 hr [2]: 1.69; 590 nm absorbance normalized to zero hour (substrate use), 2 hr [2]: 2.01; 590 nm absorbance normalized to zero hour (substrate use), 3 hr [2]: 2.37; 590 nm absorbance normalized to zero hour (substrate use), 4 hr [2]: 2.37; 590 nm absorbance normalized to zero hour (substrate use), 5 hr [2]: 2.54; 590 nm absorbance normalized to zero hour (substrate use), 6 hr [2]: 2.73; 590 nm absorbance normalized to zero hour (substrate use), 7 hr [2]: 2.78; 590 nm absorbance normalized to zero hour (substrate use), 8 hr [2]: 2.85; 590 nm absorbance normalized to zero hour (substrate use), 9 hr [2]: 3.06; 590 nm absorbance normalized to zero hour (substrate use), 10 hr [2]: 2.98; 590 nm absorbance normalized to zero hour (substrate use), 11 hr [2]: 3.12; 590 nm absorbance normalized to zero hour (substrate use), 9 hr [3]: 3.06; 590 nm absorbance normalized to zero hour (substrate use), 10 hr [3]: 2.98; 590 nm absorbance normalized to zero hour (substrate use), 11 hr [3]: 3.12
